Assay results as given in patent US5561042A, “Diamine platinum naphthalimide complexes as antitumor agents” (Cancer Therapy and Research Center, priority 1995, dated 1996).
Entries after “also recorded” stand apart in the source; their conditions may differ.

How the values were obtained:
[1] = system: Murine B16 melanoma cell line; test: In vitro growth inhibition (MTT), B16 melanoma; type: cell-based; conditions: MTT, 3 days
Text: P388 murine leukemic cell line was obtained from the DCT Tumor Repository (National Cancer Institute, Frederick Cancer Research and Development, Frederick Md. 21702). HT29 Human Colon Carcinoma cell line was obtained from the American Type Culture Collection (12301 Parklawn Drive, Rockville, Md. 20852). B16 Melanoma cell line was obtained from DuPont Merck Pharmaceutical Company (Glenolden, Pa. 19036). MCF-7 Human Breast Carcinoma cell line was a gift from Dr. K. Osborne (Department of Medicine, The University of Texas Health Science Center at San Antonio, San Antonio, Tex. 78284). All cell lines were incubated at 37° C. in a humidified atmosphere of 5% CO2 -95% air. Murine B16 melanoma cell line was grown in RPMI 1640 medium supplemented with 10% heat-inactivated fetal bovine serum, 2 mM L-glutamine, 50 units/ml penicillin, 50 μg/ml streptomycin, 25 μg/ml gentamycin, 0.75% sodium bicarbonate, 10 mM HEPES buffer (pH 7.4), and 0.06 mg/ml AntiPPLO. Murine P388 leukemic and the human HT-29 colon adenocarcinoma cell lines were maintained in RPMI 1640 medium supplemented with 10% heat-inactivated fetal bovine serum. MCF-7M human breast adenocarcinoma was maintained in IMEM medium supplemented with 5% non heat-inactivated fetal bovine serum and 1 nM insulin.
Exponentially growing cells (1-2×10^3 cells, unless specified otherwise) in 0.1 ml medium were seeded on day 0 in a 96-well microtiter plate. On day 1, 0.1 ml aliquots of medium containing graded concentrations of test compounds were added in duplicate to the cell plates. After incubation at 37° C. in a humidified incubator for 3 days (P388, B16) or 6 days (HT-29, MCF-7M), the plates were centrifuged briefly and 100 μl of the growth medium was removed. Cell cultures were incubated with 50 μl of 3-(4,5-dimethylthiazol-2-yl)-2,5-diphenyl-tetrazolium bromide [MTT, 1 mg/ml in Dulbecco's phosphate buffered saline (PBS)] for 4 hr at 37° C. The resulting purple formazan precipitate was solubilized with 200 μl of 0.04N HCl in isopropyl alcohol. Absorbance was monitored in a BioRad Model 3550 Microplate Reader at a test wavelength of 570 nm and a reference wavelength of 630 nm. The absorbance was transferred to a PC 486 computer. The IC50 values were determined by a computer program (EZ-ED50) that fit all of the data to the following four-parameterlogistic equation:
Y=((Am -Ao)/(1+(X/IC50)^n))+Ao
where Am is the absorbance of control cells, Ao is the absorbance of cells in the presence of highest agent concentration, Y is the observed absorbance, X is the agent concentration, IC50 is the concentration of agent that inhibits the cell growth by 50% of control cells (based on the absorbance) and n is the slope of the curve.

[2] = system: SV40 DNA (Form I, negatively supercoiled); test: SV40 DNA unwinding / mobility by agarose gel electrophoresis; type: binding; conditions: for effect on SV40 DNA conformation (in words): agarose gel electrophoresis, 37° C.
Text: The model used in this study, negatively supercoiled, closed circular, plasmid SV40 DNA (Form I), undergoes several stages of drug-induced unwinding that are monitored by agarose electrophoresis.
Central to the understanding of compound 21 action was the ability to assess whether the drug was bound irreversibly (presumably covalently) or reversibly. The system used to extract the reversibly bound drug went through several phases of development. The classic phenol/chloroform mixture cannot completely extract all of the drug. However, the phenol/chloroform mixture effectively extracts the drug in the presence of at least 0.1M NaCl.
Three different systems, A, B and D were used to probe the mode of interaction of compound 21 with DNA.
System A: Compound 21 and DNA in TE buffer (10 mM Tris-HCl, pH 7.5 and 1 mM EDTA) without phenol/chloroform.
System B: Compound 21 and DNA in TE buffer with 0.5M NaCl without phenol/chloroform extraction.
System D: Compound 21 and DNA in TE buffer with 0.5M NaCl followed by phenol/chloroform extraction.
In general, SV40 DNA (90% Form I, negatively supercoiled, and 10% Form II, nicked, Gibco BRL) was incubated with graded concentrations of compound 21 at 37° C. for the indicated time periods in the appropriate system. The isolated DNA was then separated by agarose gel electrophoresis (1% Seakem agarose in 1× TAE buffer) in TAE buffer with 80 volts for 2 hours. Gels were stained with ethidium bromide (0.5 μg/ml) for 15 minutes, washed and then recorded with polaroid film while being irradiated with a UV transilluminator (λ=254 nm).

8-(3'-nitro-1',8'-naphthalimide)-3,6-diazaoctylamine dichloroplatinum(II) [Compound 21]
IC50 [1]: 385 nM | effect on SV40 DNA conformation (in words) [2]: potent distortion of DNA conformation; also recorded: gradually converts the negatively supercoiled SV40 DNA (Form I) to relaxed Form I | effect on SV40 DNA conformation (in words) ([2]; listed as compound 21): observed instantly; also recorded: without incubation, the effect of compound 21 on DNA can be completely reversed using System D; also recorded: more of the mobility shift is retained, with an actual increase in drug effect at the full 8 hours; also recorded: no change in DNA mobility shift is observed even under system D at 8 hours; also recorded: can be returned to normal mobility after treatment with thiourea; also recorded: reversal of compound 21 on SV40 DNA by removal of compound 21 with phenol/chloroform extraction in 0.5M NaCl; also recorded: no change in mobility after phenol/chloroform, 0.5M NaCl extraction | decrease of the concentration at which form I and II comigrate ([2]; from time zero to 8 hours): 2 fold | time to plateau of irreversible effect on DNA conformation ([2]; time course studies): 6 to 8 h
